Experimental data from patent US12459921B2, “Isoindoline compound, preparation method, pharmaceutical composition and use thereof” (SHANGHAI INSTITUTE OF MATERIA MEDICA, CHINESE ACADEMY OF …, priority 2018, dated 2025).

system: MM.1S cells; test: Inhibitory effect on the proliferation of MM.1S, MTS cell viability test; type: cell-based; conditions: Homo sapiens, MM1.S, 168 h, multiple myeloma MM.1S cells, 7 days incubation, read-out: Tumor cell inhibitory activity
Method in brief: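 Viability measured by MTS (OD490 minus OD690 background, 3-4 h) after a 7-day exposure of 20,000 MM.1S cells/well to 5-fold serially diluted compound, 0.2% DMSO final. Inhibition calculated relative to DMSO wells; IC50 curve-fitted, averaged over three repeats.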

`N#CC1(c2ccc(Cl)cc2)CCN(CCCCCOc2cccc3c2CN(C2CCC(=O)NC2=O)C3=O)CC1` (stereo not drawn) [Example 81, 4-(4-chlorophenyl)-1-(5-((2-(2,6-dioxopiperidine-3-)-1-oxoisoindoline-4-)oxy)pentyl) piperidine-4-carbonitrile] and `N#CC1(c2ccc(OC(F)(F)F)cc2)CCN(CCCOc2cccc3c2CN(C2CCC(=O)NC2=O)C3=O)CC1` (stereo not drawn) [Example 73, 1-(3-((2-(2,6-dioxopiperidine-3-)-1-oxoisoindoline-4-)oxy)propyl)-4-(4-trifluoromethoxyphenyl)piperidine-4-carbonitrile] cannot be ordered by IC50: < 100 nM for the first, < 100 nM for the second.

Compared with `N[C@@H](CCCc1cccc2c1CN(C1CCC(=O)NC1=O)C2=O)C(=O)NC12CC3CC(CC(C3)C1)C2` (stereo partly drawn) [Example 174, (2S)—N-((3R,5R,7R)-adamantane-1-)-2-amino-5-(2-(2,6-dioxopiperidine-3-)-1-oxoisoindoline-4-)pentanamide], `Cc1ccc(NC(=O)[C@H](CCCc2cccc3c2CN(C2CCC(=O)NC2=O)C3=O)NC(=O)C2CCC2)cc1Cl` (stereo partly drawn) [Example 187, N-((2S)-1-((3-chloro-4-methylphenyl)amino)-5-(2-(2,6-dioxopiperidine-3-)-1-oxoisoindoline-4-)-1-oxopentyl-2-)cyclobutylcarboxamide] is lower in IC50: > 20000 nM for the first, < 100 nM for the second. The second is the more potent here.

First: CCc1cc(COCCCCOc2cccc3c2CN(C2CCC(=O)NC2=O)C3=O)c2ccccc2n1 (stereo not drawn) [Example 214, 3-(4-(4-((2-ethylquinoline-4-)methoxy)butoxy)-1-oxoisoindoline-2-)piperidine-2,6-dione]
Second: CCc1cc(OCCCCOc2cccc3c2CN(C2CCC(=O)NC2=O)C3=O)c2ccccc2n1 (stereo not drawn) [Example 10, 3-(4-(4-((2-ethylquinoline-4-)oxy)butoxy)-1-oxoisoindoline-2-)piperidine-2,6-dione]
The IC50 of the first is higher: 100 to 1000 nM for the first, < 100 nM for the second. The second is the more potent here.

First: O=C1CCC(N2Cc3c(CCCCCN4CCN(c5cc(Cl)cc(Cl)c5)CC4)cccc3C2=O)C(=O)N1 (stereo not drawn) [Example 237, 3-(4-(5-(4-(3,5-dichlorophenyl)piperazine-1-yl)pentyl)-1-oxoisoindoline-2-yl)piperidine-2,6-dione]
Second: O=C1CCC(N2Cc3c(CCCCN4CCN(c5ccc(Cl)cc5Cl)CC4)cccc3C2=O)C(=O)N1 (stereo not drawn) [Example 222, 3-(4-(4-(4-(2,4-dichlorophenyl)piperazine-1-yl)butyl)-1-oxoisoindoline-2-yl)piperidine-2,6-dione]
The IC50 of the first is higher: 100 to 1000 nM for the first, < 100 nM for the second. The second is the more potent here.

First: O=C1CCC(N2Cc3c(CCCOc4ccnc5ccccc45)cccc3C2=O)C(=O)N1 (stereo not drawn) [Example 2, 3-(1-oxo-4-(3-(quinoline-4-oxy)propyl)isoindoline-2-)piperidine-2,6-dione]
Second: O=C1CCC(N2Cc3c(CCCCCOc4ccnc5ccccc45)cccc3C2=O)C(=O)N1 (stereo not drawn) [Example 1, 3-(1-oxo-4-(5-(quinoline-4-oxy)pentyl)isoindoline-2-)piperidine-2,6-dione]
The IC50 of the first is higher: 100 to 1000 nM for the first, < 100 nM for the second.

First: N[C@@H](CCCc1cccc2c1CN(C1CCC(=O)NC1=O)C2=O)c1nc2ccncc2[nH]1 (stereo partly drawn) [Example 201, 3-(4-((S)-4-amino-4-(3H-imidazole[4,5-c]pyridine-2-)butyl)-1-oxoindoline-2-)piperidine-2,6-dione]
Second: Cc1ccc2nc(C(F)(F)F)cc(OCCCCCc3cccc4c3CN(C3CCC(=O)NC3=O)C4=O)c2c1 (stereo not drawn) [Example 7, 3-(4-(5-((6-methyl-2-(trifluoromethyl)quinoline-4-)oxy)pentyl)-1-oxoisoindoline-2-)piperidine-2,6-dione]
The IC50 of the first is higher: > 20000 nM for the first, 100 to 1000 nM for the second.

Compared with `O=C1CCC(N2Cc3c(OCCCCN4CCN(c5noc6ccccc56)CC4)cccc3C2=O)C(=O)N1` (stereo not drawn) [Example 242, 3-(4-(4-(4-(benzisoxazole-3-yl)piperazine-1-yl)butoxy)-1-oxoisoindoline-2-yl)piperidine-2,6-dione], `O=C1CCC(N2Cc3c(CCCCCN4CCN(c5ccnc6ccccc56)CC4)cccc3C2=O)C(=O)N1` (stereo not drawn) [Example 24, 3-(1-oxo-4-(5-(4-(quinoline-4-)piperazine-1-)pentyl)isoindoline-2-)piperidine-2,6-dione] is lower in IC50: 1000 to 20000 nM for the first, < 100 nM for the second. The second is the more potent here.

`Cc1cccc(N2CCN(CCCCc3cccc4c3CN(C3CCC(=O)NC3=O)C4=O)CC2)c1` (stereo not drawn) [Example 40, 3-(1-oxo-4-(4-(4-(3-methylphenyl)piperazine-1-)butyl)isoindoline-2-)piperidine-2,6-dione] and `O=C1CCC(N2Cc3c(CCCCN4CCN(c5cccc(C(F)(F)F)c5)CC4)cccc3C2=O)C(=O)N1` (stereo not drawn) [Example 220, 3-(1-oxo-4-(4-(4-(3-(trifluoromethyl)phenyl)piperazine-1-yl)butyl)isoindoline-2-yl)piperidine-2,6-dione] cannot be ordered by IC50: < 100 nM for the first, < 100 nM for the second.

First: O=C1CCC(N2Cc3c(OCCCC(=O)N4CCCc5ccccc54)cccc3C2=O)C(=O)N1 (stereo not drawn) [Example 117, 3-(4-(4-(3,4-dihydroquinoline-1(2H)-)-4-oxobutoxy)-1-oxoisoindoline-2-)piperidine-2,6-dione]
Second: N#CC1(c2ccccc2Cl)CCN(C(=O)CCCCOc2cccc3c2CN(C2CCC(=O)NC2=O)C3=O)CC1 (stereo not drawn) [Example 85, 4-(2-chlorophenyl)-1-(5-((2-(2,6-dioxopiperidine-3-)-1-oxoisoindoline-4-)oxy)valeryl)piperidine-4-carbonitrile]
The IC50 of the first is higher: 100 to 1000 nM for the first, < 100 nM for the second.

First: N#CC1(c2c(Cl)cccc2Cl)CCN(CCCCc2cccc3c2CN(C2CCC(=O)NC2=O)C3=O)CC1 (stereo not drawn) [Example 266, 4-(2,6-dichlorophenyl)-1-(4-(2-(2,6-dioxopiperidin-3-yl)-1-oxoisoindoline-4-yl)butyl)piperidine-4-carbonitrile]
Second: N#CC1(c2c(Cl)cccc2Cl)CCN(CCCOc2cccc3c2CN(C2CCC(=O)NC2=O)C3=O)CC1 (stereo not drawn) [Example 76, 4-(2,6-chlorophenyl)-1-(3-((2-(2,6-dioxopiperidine-3-)-1-oxoisoindoline-4-)oxy)propyl)piperidine-4-carbonitrile]
The IC50 of the first is higher: 100 to 1000 nM for the first, < 100 nM for the second.

First: COc1ccc(C2(C#N)CCN(CCCCc3cccc4c3CN(C3CCC(=O)NC3=O)C4=O)CC2)c(OC)c1OC (stereo not drawn) [Example 253, 1-(4-(2-(2,6-dioxopiperidin-3-yl)-1-oxoisoindolin-4-yl)butyl)-4-(2,3,4-trimethoxyphenyl)piperidine-4-carbonitrile]
Second: N#CC1(c2cccc(OC(F)(F)F)c2)CCN(CCCCCc2cccc3c2CN(C2CCC(=O)NC2=O)C3=O)CC1 (stereo not drawn) [Example 94, 1-(5-(2-(2,6-dioxopiperidine-3-)-1-oxoisoindoline-4-)pentyl)-4-(3-trifluoromethoxyphenyl) piperidine-4-carbonitrile]
The IC50 of the first is higher: 1000 to 20000 nM for the first, < 100 nM for the second. The second is the more potent here.

`N#CC1(c2ccc(F)cc2Cl)CCN(CCCOc2cccc3c2CN(C2CCC(=O)NC2=O)C3=O)CC1` (stereo not drawn) [Example 74, 4-(2-chloro-4-fluorophenyl)-1-(3-((2-(2,6-dioxopiperidine-3-)-1-oxoisoindoline-4-)oxy)propyl)piperidine-4-carbonitrile] and `N#CC1(c2cccc(OC(F)(F)F)c2)CCN(CCCOc2cccc3c2CN(C2CCC(=O)NC2=O)C3=O)CC1` (stereo not drawn) [Example 71, 1-(3-((2-(2,6-dioxopiperidine-3-)-1-oxoisoindoline-4-)oxy)propyl)-4-(3-trifluoromethoxyphenyl)piperidine-4-carbonitrile] cannot be ordered by IC50: < 100 nM for the first, < 100 nM for the second.

`O=C1CCC(N2Cc3c(CCCCCN4CCC5(CC4)OCc4cc(F)ccc45)cccc3C2=O)C(=O)N1` (stereo not drawn) [Example 273, 3-(4-(5-(5-fluoro-3H-spiro[isobenzofuran-1,4′-piperidine]-1′-)pentyl)-1-oxoisoindoline-2-yl)piperidine-2,6-dione] and `O=C1CCC(N2Cc3c(CCCCCN4CCC5(CC4)COc4ccccc45)cccc3C2=O)C(=O)N1` (stereo not drawn) [Example 145] fall in the same range of IC50: 100 to 1000 nM for the first, 100 to 1000 nM for the second.

`O=C1CCC(N2C(=O)c3cccc(OCCCCOc4ccnc5ccccc45)c3C2=O)C(=O)N1` (stereo not drawn) [Example 47, 2-(2,6-dioxopiperidine-3-)-4-(4-(quinoline-4-oxy)butoxy)isoindoline-1,3-dione] and `O=C1CCC(N2Cc3c(CCCCN4CCN(c5ccccc5Cl)CC4)cccc3C2=O)C(=O)N1` (stereo not drawn) [Example 215, 3-(4-(4-(4-(2-chlorophenyl)piperazine-1-yl)butyl)-1-oxoisoindoline-2-yl) piperidine-2,6-dione] cannot be ordered by IC50: < 100 nM for the first, < 100 nM for the second.

Compared with `COc1ccc(N2CCN(CCCCc3cccc4c3CN(C3CCC(=O)NC3=O)C4=O)CC2)cc1` (stereo not drawn) [Example 46, 3-(4-(4-(4-(4-methoxyphenyl)piperazine-1-)butyl)-1-oxoisoindoline-2-)piperidine-2,6-dione], `O=C1CCC(N2Cc3c(CCCCN4CCN(c5ccc(F)cc5)CC4)cccc3C2=O)C(=O)N1` (stereo not drawn) [Example 39, 3-(4-(4-(4-(4-fluorophenyl)piperazine-1-)butyl)-1-oxoisoindoline-2-)piperidine-2,6-dione] is lower in IC50: 100 to 1000 nM for the first, < 100 nM for the second.
